According to article PMC6938011, “Antiplasmodial profile of selected compounds from Malaria Box: in vitro evaluation, speed of action and drug combination studies” (Malaria Journal, 2019):
“Also recorded” adds a separate entry of the source. Read-outs that look alike come from different tables or passages of the source.

Tests used:
[1] = test system: P. falciparum 3D7 strain; test: SYBR Green I inhibition assay for the asexual stages of P. falciparum; type: cell-based, Plasmodium falciparum; details: 72 h, read-out: IC50^Pf Average (confidence interval-95%)
Method: The P. falciparum 3D7 strain was kept in culture in a humidified incubator at 37 °C in RPMI-1640 medium with 25 mM NaHCO3, 25 mM HEPES (pH 7.4), 11 mM D-glucose, 3.67 mM hypoxanthine and 25 µg/mL gentamicin, supplemented with 0.5% (m/v) AlbuMAX II. The culture medium was changed daily, and the parasitaemia was maintained below 10% with 2.5% haematocrit in human erythrocytes.
The parasites were synchronized through sterile 5% (m/v) D-sorbitol treatment over 10 min at 37 °C for the enrichment of ring-stage parasites. The cultures were pelleted by centrifugation at 600×g over 5 min. The parasitaemia was determined by microscope analysis of thin blood smears stained with Giemsa 10% (v/v) after methanol fixation. The initial parasitaemia was calculated from 1000 red blood cells (RBCs), and cultures were diluted to 0.5% parasitaemia and 2% haematocrit by adding the appropriate volumes of erythrocytes and medium. Parasite aliquots of 180 µL were distributed into 96-well plates previously prepared with 20 µL aliquots of a tenfold concentrated compound. Negative and positive control wells corresponding to non-parasitized erythrocytes and parasite cultures in the absence of compounds were set in parallel. The DMSO concentration was maintained below 0.05% (v/v). The plates were incubated for 72 h at 37 °C in a humidified incubator with a gas mixture of 90% N2, 5% O2 and 5% CO2. After incubation, the culture medium was removed, and the cells were resuspended in 100 µL PBS buffer (116 mM NaCl, 10 mM Na2HPO4, 3 mM KH2PO4) and lysed with 100 µL lysis buffer (20 mM Tris base, 5 mM EDTA, 0.0008% (v/v) Triton X-100, 0.008% (m/v) saponin, pH 8.0) containing 0.002% (v/v) SYBR Green I. Plates were incubated at room temperature for 30 min, and the fluorescence corresponding to the parasitic density was determined using a SpectraMAX Gemini EM plate reader (Molecular Devices Corp., Sunnyvale, CA) (excitation at 485 nm, emission at 535 nm). The half maximal inhibitory concentration (IC50^Pf) was determined by non-linear regression analysis of the resulting concentration-response curve using the software Origin 2016 (OriginLab Corporation).

[2] = test system: Hepatocarcinoma cells (HepG2); test: Cytotoxicity evaluation, MTT assay; type: cell-based, human; details: HepG2, 72 h, read-out: IC50^HepG2, MTT Average (confidence interval-95%)
Method: (§1) Hepatocarcinoma cells (HepG2) were cultivated in RPMI medium supplemented with 10% (v/v) fetal bovine serum and 0.2% (v/v) penicillin/streptomycin. The antibiotics were added to the medium to eliminate the potential interference of microbial contamination. Cells were cultivated at 37 °C and 5% CO2; the supplemented medium was changed every 2 days.
(§2) For the experimental procedures, cells were trypsinized and transferred to a 96-well plate at 30,000 cells per well and incubated at 37 °C overnight for cell adhesion. Then, serial dilutions of the inhibitor candidates were added to the plate. Cells without any compounds were used as positive growth controls. The plate was incubated at 37 °C and 5% CO2 for 72 h. After incubation, the highest compound concentration to be considered (highest concentration without precipitation) was observed by microscopy. Cytotoxicity was evaluated by two different methods. The first is a colorimetric assay based on metabolic cell activity in the presence of 3-(4,5-dimethylthiazol-2-yl)-2,5-diphenyltetrazolium bromide (MTT). Briefly, mitochondrial enzymes can convert the MTT dye into the purple insoluble compound formazan. To each well, 20 µL MTT at 5 mg/mL was added, followed by incubation at 37 °C for 3 to 5 h. After incubation, the supernatant was removed, and formazan crystals were solubilized in 100 µL DMSO. The absorbance, which is proportional to the number of viable cells, was determined using a SpectraMAX Plus 384 plate reader (Molecular Devices Corp., Sunnyvale, CA) (λ = 570 nm). The second method is based on the uptake of neutral red, a dye that is retained inside the lysosomes of viable cells. To each well, after removal of culture media, 200 µL neutral red medium 40 µg/mL was added, followed by incubation at 37 °C for 3 to 5 h. After incubation, supernatant was dispensed, and 200 µL 0.5% (v/v) formaldehyde in 1% (m/v) CaCl2 was added to remove excess of the dye for 5 min. Supernatant was dispensed, and 100 µL alcohol-acid solution (50% (v/v) ethanol, 1% (v/v) glacial acetic acid) was added, and the plate was stirred until a homogeneous solution was formed. The absorbance was determined using a SpectraMAX Plus 384 plate reader (Molecular Devices Corp., Sunnyvale, CA) (λ = 540 nm). For both methods, the half maximal inhibitory concentration (IC50^HepG2) was determined by non-linear regression analysis of the resulting concentration-response curve using the software Origin 2016 (OriginLab Corporation).

[3] = test system: Hepatocarcinoma cells (HepG2); test: Cytotoxicity evaluation, neutral red assay; type: cell-based, human; details: HepG2, 72 h, read-out: IC50^HepG2, NR Average (confidence interval-95%)
Method: as §1, §2

[4] = test system: P. falciparum; test: Combination assays, isobologram analysis (FIC50 pairs); type: cell-based, Plasmodium falciparum; details: for Isobologram data, Additive: fraction of FIC50 pairs / Isobologram data, Additive: number of FIC50 pairs / Isobologram data, Antagonistic: number of FIC50 pairs / Isobologram data, Synergic: number of FIC50 pairs / Isobologram data, Antagonistic: fraction of FIC50 pairs: combination with artesunate; for Combination profile with artesunate: isobologram, IC50 equivalent ratios 1:4, 2:3, 1:1, 3:2, 4:1
Method: Combinations of anti-malarial candidates with artesunate, an artemisinin derivative, were tested in fixed molar ratios based on the individual IC50 values that were previously determined by the SYBR Green I assay. Traditionally, a line (isobole) of additivity is used to distinguish between additive, synergic, and antagonistic interaction profiles. […] Thus, a systematic consideration of additivity ranges was included in the isobologram analysis, as previously described by Grabovsky and Tallarida. Concentration-response curves of individual compounds were used in the calculation of each pair’s additivity range (area within the upper and lower limits in Figs. 4 and 5). Fractional inhibitory concentration (FIC50) pairs plotted as points inside the additivity range indicate the expected sum of each compound effect, while points above and below the range indicate antagonistic and synergic interactions, respectively. The selected inhibitors were combined with artesunate in the IC50 equivalent ratios of 1:4, 2:3, 1:1, 3:2 and 4:1 for the construction of the isobolograms.

[5] = test system: P. falciparum 3D7 strain; parameters: method as in PMID 23798988; details: reported potency of Malaria Box compounds ref 13, read-out: Reported IC50^Pf; cited from earlier work
[6] = test system: P. falciparum; details: cited from earlier work
[7] = test system: asexual intraerythrocytic stages of P. falciparum; test: Speed of action studies (microscopy of thin blood smears); type: cell-based, Plasmodium falciparum; details: ring-stage parasites; for Parasite morphology during incubation: compound at tenfold the IC50, microscopy up to 36 h; for Speed of action: compound at tenfold the IC50, observed 0-36 h
Method: Parasites in thin blood smears were observed by microscopy after 0, 8, 16, 24 and 36 h of incubation.

[8] = test system: P. berghei NK65 strain; test: In vivo suppressive parasite growth test against Plasmodium berghei; parameters: species or system Swiss outbred mice; details: 50 mg/kg oral gavage daily for 3 days, P. berghei-infected mice
Method: A suppressive parasite growth test was performed in mice infected with P. berghei NK65 strain (originally received from the New York University Medical School), as described previously, with some modifications. Briefly, adult Swiss outbred mice (20 ± 2 g weight) were intraperitoneally inoculated with 1 × 10^5 red blood cells infected with P. berghei. The infected mice were maintained together for at least 2 h and then randomized into groups of 5 animals per cage, which were subsequently administered 50 mg/kg of each compound diluted in 3% (v/v) DMSO by oral gavage daily for 3 days. Two control groups were used in parallel: one was treated with CQ (20 mg/kg) and the other was treated with the vehicle. Blood smears from mouse tails were prepared on days 5 and 7 post-infection and then fixed with methanol, stained with Giemsa 10% (v/v), and examined under the microscope.

[9] = parameters: method as in PMID 27467575; details: previous pharmacokinetics studies ref 30; cited from earlier work
[10] = parameters: method as in PMID 27467575; details: previous pharmacokinetics studies ref 30; cited from earlier work; remark: listed apart in the source
[11] = test system: P. falciparum; test: Combination assays, isobologram analysis (FIC50 pairs); type: cell-based, Plasmodium falciparum
[12] = test system: bc1 complex; parameters: method as in PMID 27467575; details: mitochondrial electron transport chain ref 30; cited from earlier work
[13] = Solubility in the cytotoxicity assay conditions; type: physicochemical; details: HepG2 cytotoxicity assay conditions
Method: For the experimental procedures, cells were trypsinized and transferred to a 96-well plate at 30,000 cells per well and incubated at 37 °C overnight for cell adhesion. Then, serial dilutions of the inhibitor candidates were added to the plate. Cells without any compounds were used as positive growth controls. The plate was incubated at 37 °C and 5% CO2 for 72 h. After incubation, the highest compound concentration to be considered (highest concentration without precipitation) was observed by microscopy. Cytotoxicity was evaluated by two different methods. The first is a colorimetric assay based on metabolic cell activity in the presence of 3-(4,5-dimethylthiazol-2-yl)-2,5-diphenyltetrazolium bromide (MTT). Briefly, mitochondrial enzymes can convert the MTT dye into the purple insoluble compound formazan. […] The absorbance, which is proportional to the number of viable cells, was determined using a SpectraMAX Plus 384 plate reader (Molecular Devices Corp., Sunnyvale, CA) (λ = 570 nm). […] The absorbance was determined using a SpectraMAX Plus 384 plate reader (Molecular Devices Corp., Sunnyvale, CA) (λ = 540 nm). For both methods, the half maximal inhibitory concentration (IC50^HepG2) was determined by non-linear regression analysis of the resulting concentration-response curve using the software Origin 2016 (OriginLab Corporation).

Row | Compound | Isobologram data, Additive: fraction of FIC50 pairs [4] [%] | Isobologram data, Additive: number of FIC50 pairs [4] | Isobologram data, Antagonistic: number of FIC50 pairs [4] | Isobologram data, Synergic: number of FIC50 pairs [4] | Combination profile with artesunate [4] | IC50 [5] [nM] | IC50 [1] [nM] | IC50 [2] [nM] | IC50 [3] [nM] | Parasite morphology during incubation [7] | Speed of action [7] | Isobologram data, Antagonistic: fraction of FIC50 pairs [4] [%] | Combination profile with proguanil [11] | also measured
1 | C[C@H]1[C@H](OC(=O)CCC(=O)O)O[C@@H]2O[C@@]3(C)CC[C@H]4[C@H](C)CC[C@@H]1[C@@]24OO3 [Artesunate, reference compound] | 100 | 15 | 0 | 0 | Additivity | 8 | – | – | – | – | – | – | – | IC50 ([1]; Plasmodium falciparum): 17 nM; IC50 ([2]; Homo sapiens): 110000 nM; IC50 ([3]; Homo sapiens): 110000 nM; Combination profile with artesunate ([4]; listed as artesunate): additive; Speed of action (literature) ([6]; in vitro ref 34): fast
2 | CCOC(=O)C1=C(C)N=c2sc(=Cc3cc(Cl)ccc3O)c(=O)n2C1c1ccc(OC)cc1 (centres unmarked) [Compound 2] | 92 | 12 | 1 | 0 | additive profile | 489 | 400 | 22000 | 22000 | pyknotic nuclei formation | Fast | 8 | – | Combination profile with artesunate ([4]; listed as 02): Additivity; % of reduction of parasitaemia, day 5 after infection [8]: 64%; % of reduction of parasitaemia, day 7 after infection [8]: 33%; Oral bioavailability [9]: poor; Plasma protein binding [10]: > 99%
3 | O=C1c2ccccc2-c2nnc(-c3ccc(Br)cc3)cc21 [Compound 6] | 15 | 2 | 11 | 0 | – | 1070 | 1200 | > 12500 | > 12500 | young trophozoites were observed after 36 h | slow-acting and Slow | 85 | highly synergic | Combination profile with artesunate ([4]; listed as 06): Antagonism; Molecular target [12]: inhibitor of the mitochondrial electron transport chain targeting the bc1 complex
4 | Cc1cc(NC(=O)c2ccc(-c3ccccc3)cc2)no1 [Compound 10] | 38 | 5 | 8 | 0 | antagonistic; also recorded: Antagonism | 693 | 850 | – | – | punctual shapes after 16 h | Fast | 62 | – | Solubility in the assay conditions [13]: low solubility
5 | O=C1C(O)=C([C@H]2CC[C@H](c3ccc(Cl)cc3)CC2)C(=O)c2ccccc21 [atovaquone, reference compound] | – | – | – | – | antagonistic | – | – | – | – | – | – | – | synergic | Speed of action (literature) [6]: slow
